Laboratory results as given in PMC8126209, “Phytochemical Profile and In Vitro Antioxidant, Antimicrobial, Vital Physiological Enzymes Inhibitory and Cytotoxic Effects of Artemisia jordanica Leaves Essential Oil from Palestine” (Molecules, 2021).
Converted amounts (≈) assume the structure as drawn. Where two headings read alike, the source gives them in different places. Marks after values point to notes of the source that are not given here. One block for each compound: values may come before it.

What was measured:
P. vulgaris = experiment: Broth microdilution MIC, P. vulgaris; assay type: cell-based, Proteus vulgaris (ATCC 8427)
Protocol: (§1) The antibacterial effect of (AJ) EO was determined utilizing several strains of bacteria, which were obtained from the American Type Culture Collection (ATCC): Pseudomonas aeruginosa (ATCC 9027), Escherichia coli (ATCC 25922), Klebsiella pneumonia (ATCC 13883), Proteus vulgaris (ATCC 8427), and Staphylococcus aureus (ATCC 25923), and from a diagnostically confirmed methicillin-resistant Staphylococcus aureus (MRSA). The antifungal activity of (AJ) EO was evaluated against the growth of Candida albicans (ATCC 90028). The antimicrobial activity of the (AJ) EO used in this study was estimated using the broth microdilution method. The (AJ) EO was dissolved in DMSO to a concentration of 200 µg/mL. The produced solution was serially micro-diluted (2-fold) 10 times in sterile Mueller–Hinton broth (Thermo Fisher Scientific, Waltham, MA, USA). The dilution processes were performed under aseptic conditions in 96-well plates. In the micro-wells that were assigned to evaluate the antibacterial activity of (AJ) EO, micro-well number 11 contained plant-free Mueller–Hinton broth, which was used as a positive control for microbial growth. Micro-well number 12 contained plant-free and microbial-free Mueller–Hinton broth, which was used as a negative control for microbial growth. Micro-wells numbered 1–11 were inoculated aseptically with the test microbes. The (AJ) EO antimicrobial activity was determined in triplicate. All the inoculated plates were incubated at 35 °C. Regarding C. albicans, the same method was used but using RPMI media (Thermo Fisher Scientific, Waltham, MA, USA) instead of Mueller–Hinton broth. The incubation period lasted for about 18–24 h for those plates inoculated with the test bacterial strains and for about 48 h for those plates inoculated with C. albicans. […]

bovine COX-1 = molecular target: T1, bovine COX-1 (Ovis aries, UniProt P05979); experiment: COX inhibitor screening assay kit, COX-1; assay type: biochemical; conditions: calculated from two concentrations (350 and 50 µg/mL); read-out: IC50 COX-1
T1 construct: purchased Cayman Chemical 560131
T1 sequence (P05979 25-600): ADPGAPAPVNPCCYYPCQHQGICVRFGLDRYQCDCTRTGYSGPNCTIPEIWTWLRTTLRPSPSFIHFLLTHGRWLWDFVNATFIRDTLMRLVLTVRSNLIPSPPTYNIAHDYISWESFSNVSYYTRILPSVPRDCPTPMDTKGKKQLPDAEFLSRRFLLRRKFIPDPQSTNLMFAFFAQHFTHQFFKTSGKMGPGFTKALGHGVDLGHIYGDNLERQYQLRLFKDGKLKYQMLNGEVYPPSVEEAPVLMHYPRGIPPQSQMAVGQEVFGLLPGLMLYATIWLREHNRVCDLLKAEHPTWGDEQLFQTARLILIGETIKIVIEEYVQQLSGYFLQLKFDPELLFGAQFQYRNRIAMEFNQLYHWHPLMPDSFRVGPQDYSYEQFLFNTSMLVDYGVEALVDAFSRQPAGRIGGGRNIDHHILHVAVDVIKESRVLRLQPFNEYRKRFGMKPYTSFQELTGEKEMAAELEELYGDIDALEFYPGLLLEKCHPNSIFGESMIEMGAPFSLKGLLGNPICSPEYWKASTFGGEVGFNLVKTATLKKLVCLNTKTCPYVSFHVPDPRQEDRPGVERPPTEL
Protocol: The ability of the (AJ) EO to prevent the conversion of arachidonic acid to PGH2 by bovine COX-1 and human recombinant COX-2 was assessed using a COX inhibitor screening assay kit (Item No: 560131, Cayman Chemical, Ann Arbor, MI, USA) according to manufacturer’s guidelines. The 50% inhibitory concentration (IC50) of COX-1/COX-2 activity of the tested samples was determined, with the assay run, in duplicate, with two concentrations (350 and 50 µg/mL). A standard curve of eight concentrations of prostaglandin, a non-specific binding sample, and a maximum binding sample was used, as instructed in the kit manual, to determine the inhibition of the sample plant, applying the generated multiple regression best-fit line. The percentage inhibition of the two concentrations was used to calculate the IC50 [69, 70].

human recombinant COX-2 = molecular target: T2, human recombinant COX-2 (Homo sapiens, UniProt P35354); experiment: COX inhibitor screening assay kit, COX-2; assay type: biochemical; conditions: calculated from two concentrations (350 and 50 µg/mL); read-out: IC50 COX-2
T2 construct: purchased Cayman Chemical 560131
T2 sequence (P35354 18-604): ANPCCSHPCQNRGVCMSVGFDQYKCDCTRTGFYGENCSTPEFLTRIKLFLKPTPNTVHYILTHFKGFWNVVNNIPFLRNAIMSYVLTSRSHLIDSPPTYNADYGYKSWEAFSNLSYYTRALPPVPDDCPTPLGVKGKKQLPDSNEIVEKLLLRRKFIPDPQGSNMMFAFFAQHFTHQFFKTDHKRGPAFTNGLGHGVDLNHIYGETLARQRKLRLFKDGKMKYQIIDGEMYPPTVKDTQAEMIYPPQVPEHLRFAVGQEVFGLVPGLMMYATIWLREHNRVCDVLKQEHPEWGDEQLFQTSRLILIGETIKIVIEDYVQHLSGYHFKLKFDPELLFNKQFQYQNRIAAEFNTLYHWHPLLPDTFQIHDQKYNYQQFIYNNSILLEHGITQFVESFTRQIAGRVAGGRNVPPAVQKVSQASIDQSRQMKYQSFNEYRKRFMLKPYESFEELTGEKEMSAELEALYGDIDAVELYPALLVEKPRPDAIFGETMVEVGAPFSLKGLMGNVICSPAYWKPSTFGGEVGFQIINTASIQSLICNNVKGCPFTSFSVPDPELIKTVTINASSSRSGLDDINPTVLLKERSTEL
From the text: The percentage inhibition of the two concentrations was used to calculate the IC50 [69, 70].

Caco-2 = experiment: MTS cytotoxicity assay, Caco-2; assay type: cell-based; conditions: Homo sapiens, 24 h, read-out: IC50 against Caco-2
Protocol: (§2) The liver (Hep3B), breast (MCF-7), Human cervical (HeLa), and Colon (CACO-2) tumor cell lines were cultivated separately in RPMI-1640 media (Sigma, Norwich, UK), which was treated with 1% L-glutamine (Sigma, London, UK), 1% penicillin/streptomycin antibiotics (BI, New Delhi, India), and 10% fetal bovine serum. Cancer cells were grown at 37 °C in a humidified atmosphere with 5% CO2. Cells were seeded at 2.6 × 10^4 cells/well in a 96-well plate. […] Cell viability was evaluated by the CellTilter 96® Aqueous One Solution Cell Proliferation (MTS) Assay according to the manufacturer’s directions (Promega Corporation, Madison, WI, USA). At the end of the treatment, 20 μL of MTS solution per 100 μL of media was added to each well, and the solutions in the well plates were incubated at 37 °C for 2 h. The absorbance was measured at 490 nm.

HeLa = experiment: MTS cytotoxicity assay, HeLa; assay type: cell-based; conditions: Homo sapiens, 24 h, read-out: IC50 against HeLa
Protocol: as §2

HepG2 = experiment: MTS cytotoxicity assay, HepG2; assay type: cell-based; conditions: Homo sapiens, 24 h, text names Hep3B, read-out: IC50 against HepG2
MRSA = experiment: Broth microdilution MIC, MRSA; assay type: cell-based, methicillin-resistant Staphylococcus aureus; set-up: key: R: Resistant
Protocol: (§3) The antimicrobial activity of the (AJ) EO used in this study was estimated using the broth microdilution method. The (AJ) EO was dissolved in DMSO to a concentration of 200 µg/mL. The produced solution was serially micro-diluted (2-fold) 10 times in sterile Mueller–Hinton broth (Thermo Fisher Scientific, Waltham, MA, USA). The dilution processes were performed under aseptic conditions in 96-well plates. In the micro-wells that were assigned to evaluate the antibacterial activity of (AJ) EO, micro-well number 11 contained plant-free Mueller–Hinton broth, which was used as a positive control for microbial growth. Micro-well number 12 contained plant-free and microbial-free Mueller–Hinton broth, which was used as a negative control for microbial growth. Micro-wells numbered 1–11 were inoculated aseptically with the test microbes. The (AJ) EO antimicrobial activity was determined in triplicate. All the inoculated plates were incubated at 35 °C. Regarding C. albicans, the same method was used but using RPMI media (Thermo Fisher Scientific, Waltham, MA, USA) instead of Mueller–Hinton broth. The incubation period lasted for about 18–24 h for those plates inoculated with the test bacterial strains and for about 48 h for those plates inoculated with C. albicans.

K. pneumoniae = experiment: Broth microdilution MIC, K. pneumoniae; assay type: cell-based, Klebsiella pneumonia (ATCC 13883); conditions: Klebsiella pneumoniae
Protocol: as §3

P. aeruginosa = experiment: Broth microdilution MIC, P. aeruginosa; assay type: cell-based, Pseudomonas aeruginosa (ATCC 9027); set-up: key: R: Resistant
Protocol: as §1, with “Micro-wells numbered 1–11 were inoculated aseptically with the test microbes.” left out, “triplicate.” for “triplicate. All the inoculated plates were incubated at 35 °C. Regarding C. albicans, the same method was used but using RPMI media (Thermo Fisher Scientific, Waltham, MA, USA) instead of Mueller–Hinton broth. The incubation period lasted for about 18–24 h for those plates inoculated with the test bacterial strains and for about 48 h for those plates inoculated with C. albicans.”

[1] = DPPH free radical scavenging assay; conditions: 30 min, 517 nm
Protocol: One hundred mg of (AJ) EO was dissolved in 100 mL of methanol to create the stock solution (1 mg/mL). The obtained solution was mixed with methanol to obtain different concentrations (2, 3, 5, 7, 10, 20, 30, 40, 50, 80, and 100 μg/mL). One milliliter of stock solution and 1 mL of methanol were mixed with 1 mL of DPPH (Sigma-Aldrich, Steinheim, Germany). Then, the solution was kept in the dark at room temperature for 30 min. However, by replacing the plant EO solution with methanol, the blank solution was prepared. Trolox (Sigma-Aldrich, St. Louis, MO, USA) was utilized as a positive control, and the absorbance for all obtained samples was measured by spectrophotometer (Shimadzu-UV-1800, Kyoto, Japan) at 517 nm. The DPPH inhibitory potentials were estimated utilizing the following formula:I (%) = [ABSblank − ABStest]/[ABSblank]) × 100%(2) where I (%) is the percentage of DPPH inhibitory potentials.

[2] = Proteus vulgaris, read-out: MIC

potency estimated from few doses (bovine COX-1): 7.89 ± 0.96 µg/mL (≈ 31 µM) | potency estimated from few doses (human recombinant COX-2): 40.2 ± 1.09 µg/mL (≈ 158 µM)
Structure (SMILES): CC(C(=O)O)c1cccc(C(=O)c2ccccc2)c1 (stereo not shown) [Ketoprofen]

MIC (MRSA): R | MIC (MRSA; listed as ampicillin): does not have antibacterial activity | MIC (K. pneumoniae): 1 µg/mL (≈ 2.86 µM) | MIC (P. vulgaris; [2]): 18 µg/mL (≈ 51.5 µM) | MIC (P. aeruginosa): R
Structure (SMILES): CC1(C)S[C@@H]2[C@H](NC(=O)[C@H](N)c3ccccc3)C(=O)N2[C@H]1C(=O)O [Ampicillin, ampicillin]

The remaining lines, values behind:

Structure (SMILES): O=C(O)c1cn(C2CC2)c2cc(N3CCNCC3)c(F)cc2c1=O [Ciprofloxacin, ciprofloxacin]
MIC (P. vulgaris): 15 µg/mL (≈ 45.3 µM) | MIC (P. vulgaris; [2]): 15 µg/mL (≈ 45.3 µM)

Structure (SMILES): COc1cccc2c1C(=O)c1c(O)c3c(c(O)c1C2=O)C[C@@](O)(C(=O)CO)C[C@@H]3O[C@H]1C[C@H](N)[C@H](O)[C@H](C)O1 [doxorubicin]
IC50 (Caco-2): 0.37 ± 0.08 µg/mL (≈ 0.681 µM) | IC50 (HeLa): 0.84 ± 0.03 µg/mL (≈ 1.55 µM) | IC50 (HepG2): 1.21 ± 0.05 µg/mL (≈ 2.23 µM)

Structure (SMILES): Cc1c(C)c2c(c(C)c1O)CCC(C)(C(=O)O)O2 (stereo not shown) [Trolox]
IC50 against DPPH [1]: 1.58 ± 1.49 ^a µg/mL
